Test results reported in ChEMBL document CHEMBL6121031, “Optimizing Linezolid: Transforming It into a Selective MAO-B Inhibitor via a Toxicity-to-Activity Optimization Approach” (ACS Med Chem Lett, 2025).

Assays:
[1] = molecular target: T1, Amine oxidase [flavin-containing] A (Homo sapiens, UniProt P21397); test: Inhibition of recombinant human MAO-A using kynuramine as substrate incubated for 15 mins by absorbance based assay
T1 sequence (P21397 whole entry): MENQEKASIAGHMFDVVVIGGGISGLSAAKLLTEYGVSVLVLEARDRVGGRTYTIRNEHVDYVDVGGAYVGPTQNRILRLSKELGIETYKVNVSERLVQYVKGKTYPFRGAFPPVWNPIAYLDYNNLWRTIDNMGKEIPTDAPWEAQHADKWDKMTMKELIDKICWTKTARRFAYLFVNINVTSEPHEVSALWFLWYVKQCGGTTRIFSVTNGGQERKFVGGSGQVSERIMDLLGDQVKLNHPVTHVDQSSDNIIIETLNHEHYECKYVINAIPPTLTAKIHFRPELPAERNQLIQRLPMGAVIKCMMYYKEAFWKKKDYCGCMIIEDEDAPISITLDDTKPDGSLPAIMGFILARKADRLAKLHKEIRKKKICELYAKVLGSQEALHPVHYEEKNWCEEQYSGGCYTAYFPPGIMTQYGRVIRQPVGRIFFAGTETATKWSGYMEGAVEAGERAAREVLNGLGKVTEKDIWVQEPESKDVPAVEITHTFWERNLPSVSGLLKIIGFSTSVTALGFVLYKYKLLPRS

[2] = system: Mycobacterium tuberculosis; test: Antimycobacterial activity against Mycobacterium tuberculosis H37Rv measured after 7 days by MABA assay; assay type: functional; conditions: 168 h, time 7 day
[3] = molecular target: T2, Amine oxidase [flavin-containing] B (Homo sapiens, UniProt P27338)
T2 sequence (P27338 whole entry): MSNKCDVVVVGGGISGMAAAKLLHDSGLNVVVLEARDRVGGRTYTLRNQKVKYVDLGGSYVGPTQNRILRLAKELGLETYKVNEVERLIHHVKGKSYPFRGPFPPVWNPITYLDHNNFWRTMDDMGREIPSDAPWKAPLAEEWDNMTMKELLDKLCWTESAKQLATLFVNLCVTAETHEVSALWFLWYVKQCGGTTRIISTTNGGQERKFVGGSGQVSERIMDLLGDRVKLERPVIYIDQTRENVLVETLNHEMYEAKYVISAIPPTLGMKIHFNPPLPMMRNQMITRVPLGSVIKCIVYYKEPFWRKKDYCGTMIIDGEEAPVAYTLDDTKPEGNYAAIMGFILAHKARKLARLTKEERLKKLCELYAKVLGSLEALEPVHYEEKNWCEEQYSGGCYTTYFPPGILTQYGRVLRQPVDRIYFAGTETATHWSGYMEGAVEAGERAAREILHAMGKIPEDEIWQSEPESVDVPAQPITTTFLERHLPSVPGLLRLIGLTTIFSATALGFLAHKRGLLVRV

[4] = Cytotoxicity against human THP-1 cells incubated for 3 days by Cell Titer-Glo Luminescent Cell Viability Assay; assay type: toxicity, cell-based
[5] = molecular target: T2, Amine oxidase [flavin-containing] B; test: Reversible competitive inhibition of human MAO-B assessed as residual activity before dialysis at 0.068 uM incubated for 30 mins relative to control; conditions: 0.5 h, read-out: Activity
[6] = molecular target: T2, Amine oxidase [flavin-containing] B; test: Potency index, ratio of Pargyline IC50 to test compound IC50 for inhibition of recombinant human MAO-B using benzylamine as substrate incubated for 15 mins by absorbance based assay; conditions: 0.25 h
[7] = molecular target: T2, Amine oxidase [flavin-containing] B; test: Reversible competitive inhibition of human MAO-B assessed as residual activity after dialysis at 0.068 uM incubated for 30 mins relative to control; conditions: 0.5 h, read-out: Activity
[8] = molecular target: T2, Amine oxidase [flavin-containing] B; test: Potency index, ratio of Clorgyline IC50 to test compound IC50 for inhibition of recombinant human MAO-B using benzylamine as substrate incubated for 15 mins by absorbance based assay; conditions: 0.25 h
[9] = molecular target: T2, Amine oxidase [flavin-containing] B; conditions: 0.5 h

SMILES | IC50 [1] [µM] | MIC [2] [µg/mL] | IC50 [3] [nM] | IC50 at 3 days [4] [µg/mL] | activity at 0.068 µM [5] [%] | Ratio IC50 [6] | activity at 0.068 µM [7] [%] | Ratio IC50 [8] | activity at 0.028 µM [9] [%]
CCCCS(=O)(=O)Nc1nnc(-c2ccc(N3CCSCC3)c(F)c2)s1 | 21.5 | > 25 | 50 | – | – | – | – | – | –
O=C(Nc1nnc(-c2ccc(N3CCSCC3)c(F)c2)s1)C1CC1 | > 40 | > 25 | 100 | – | – | – | – | – | –
CS(=O)(=O)Nc1nnc(-c2ccc(N3CCSCC3)c(F)c2)s1 | 18.4 | > 25 | 40 | – | – | – | – | – | –
CC(=O)Nc1nnc(-c2ccc(N3CCSCC3)c(F)c2)s1 | 8.96 | > 25 | 70 | > 300 | – | – | – | – | –
CC(=O)Nc1nnc(-c2ccc(N3CCCC3)c(F)c2)s1 | 13.2 | > 25 | 170 | – | – | – | – | – | –
O=S(=O)(Nc1nnc(-c2ccc(N3CCSCC3)c(F)c2)s1)C1CC1 | 26 | > 25 | 50 | – | – | – | – | – | –
CCS(=O)(=O)Nc1nnc(-c2ccc(N3CCSCC3)c(F)c2)s1 | 15.8 | > 25 | 30 | > 300 | 35 | 4 | 73.5 | 54 | –
CC(=O)Nc1nnc(-c2ccc(N3CCOCC3)c(F)c2)s1 | > 40 | > 25 | 1020 | – | – | – | – | – | –
C#CCN(C)Cc1ccccc1 [PARGYLINE] | – | – | – | – | – | – | – | – | 34
